From paper PMC8341946, “Wheat pathogen Zymoseptoria tritici N-myristoyltransferase inhibitors: on-target antifungal activity and an unusual metabolic defense mechanism” (RSC Chemical Biology, 2020)
“Also recorded” adds a separate entry of the source. Where two headings read alike, the source gives them in different places.

Assays:
HsNMT1 [1] = details: cited from earlier work; for IC50: Table S1, ref SI refs 1-7 as given with each inhibitor name; for Ki: Table S1, cells marked (Ki), ref SI refs 3, 5, 6 as given with each inhibitor name, read-out: HsNMT1 IC50 (µM), value marked (Ki)
ZtNMTΔ99 [2] = biological target: T1, ZtNMTΔ99 (Zymoseptoria tritici, UniProt F9XBB7); test: ZtNMT IC50 assay (CPM, enzymatic); format: biochemical
T1 sequence (F9XBB7 entry or part of it, stated change not applied): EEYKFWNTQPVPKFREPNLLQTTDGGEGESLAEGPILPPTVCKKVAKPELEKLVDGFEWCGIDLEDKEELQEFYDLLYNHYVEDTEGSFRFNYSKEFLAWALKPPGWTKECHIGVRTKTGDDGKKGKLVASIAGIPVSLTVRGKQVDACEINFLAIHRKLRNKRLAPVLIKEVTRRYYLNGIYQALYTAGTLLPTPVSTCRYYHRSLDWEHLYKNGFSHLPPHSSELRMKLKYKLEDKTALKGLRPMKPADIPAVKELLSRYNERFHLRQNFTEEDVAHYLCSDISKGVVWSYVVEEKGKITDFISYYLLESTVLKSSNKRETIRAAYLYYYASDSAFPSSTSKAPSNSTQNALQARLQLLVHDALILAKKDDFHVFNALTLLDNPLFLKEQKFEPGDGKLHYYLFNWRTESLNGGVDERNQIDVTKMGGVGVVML
Excerpt: As the peptide substrate we used an octapeptide derived from the N-terminus of F9X1I2 (Z. tritici predicted homolog of ADP-ribosylation factor 1, ARF1), which we hypothesized would be natively myristoylated in vivo.
Fig. 1 ZtNMT enzymatic activity and structure. […] The CPM reagent enables fluorogenic readout of the reaction rate based on the generation of coenzyme A thiol. […] (D) ZtNMT homology model generated using Swiss Model[26] based on a reported A. fumigatus NMT X-Ray structure 4UWI[27] was aligned to HsNMT1 (PDB: 5MU6, in transparent grey). […] (E) A map of ligand interactions between docked IMP-1088 and its induced fit generated ZtNMT receptor protein residues.
The assay was adapted from a previous publication.[25] […] Accumulation of fluorescence signal at 470 nm was measured at one-minute intervals during the first 20 minutes of the reaction. Rates of the enzymatic reaction were calculated from the linear range of the resulting fluorescence over time curve using GraphPad Prizm 5. Then, sigmoidal dose–response (variable curve) fitting was applied to the data to obtain IC50 values. The assay was performed with at least 2 replicates, mean and confidence intervals are reported.

Z. tritici = test: Anti-proliferative EC50 assay (MTS viability); format: cell-based, Zymoseptoria tritici
ZtNMTΔ99 [3] = biological target: T1, ZtNMTΔ99; format: biochemical; details: in the presence of 32 μM myristoyl-CoA; read-out: KM(peptide)
Experimental: ZtNMT characterization. KM and Vmax constants measurements were performed at two
ZtNMT concentrations: 100 ng/ml and 200 ng/ml.
B) ZtARF1 Km and Vmax measured
The kinetic constants for both NMT substrates in

Z. tritici culture = Z. tritici culture viability after 4 h treatment (microscope); format: cell-based, Zymoseptoria tritici; details: for culture phenotype under microscope: 4 h; for effect on cell viability: 4 h treatment, logarithmic growth phase
[4] = test system: Z. tritici whole proteome; test: TMT-based proteomics of the whole lysate after NMT inhibition; format: cell-based, Zymoseptoria tritici; details: 8-64 μM, 4 h
Experimental: These changes reflect the acute response mounted by the fungus in response to compound and are relatively substantial considering that they occur following only 4 hours of inhibitor treatment. Limited annotation of Z. tritici genes[43] prompted us to undertake an in-depth analysis using NCBI BLAST+[39] to find closest homologs in S. cerevisiae, one of the most well-annotated yeast genomes available. We performed the search filtering out poor alignment matches (e-value > 0.01) and selected a single best match in the S. cerevisiae proteome for each Z. tritici protein.
Fig. 3 Response of Z. tritici to treatment with NMT inhibitors. […] Data is normalized by subtraction of the row mean values. (B) GO biological process and KEGG term enrichments using Fisher's exact test applied to proteins in Cluster W. (C) GO biological process term enrichments from Fisher's exact test applied to proteins in Cluster Z. GO annotation were assigned to Z. tritici proteins based on S. cerevisiae homolog (BLAST analysis) terms.
0.8 mg of each of the TMTsixplex™ Isobaric labels was dissolved in 41 μl anhydrous acetonitrile and then 8 μl of the solution of a reagent was added to 30 μl of corresponding peptide solution to start the labelling reaction. The solution was stirred at room temperature for 1.5 h. […]

[5] = test system: Z. tritici myristoylated proteome; test: TMT-based proteomics of myristate enriched proteins after NMT inhibition; format: cell-based, Zymoseptoria tritici
[6] = test system: NMT activity in live Z. tritici; test: YnMyr tagging in live Z. tritici, in-gel fluorescence
Experimental: Fig. 2 Inhibition and assessment of myristoylation in vivo. (A) Generalized workflow for identification and quantification of myristoylated proteins. Cells were treated with YnMyr in culture, and cell lysates ligated to multifunctional reagents bearing a TAMRA dye for fluorescent in-gel imaging and/or biotin for affinity enrichment and analysis by proteomics.
YnMyr was used to measure the effect of inhibitor on NMT activity in live Z. tritici.

HsNMT1 [7] = biological target: HsNMT1; set-up: method as in PMID 29760414; details: estimated; cited from earlier work
[8] = Table S1, enzymatic CPM assay, read-out: IC50
[9] = Table S1, viability MTS assay, read-out: EC50

## CNCc1nnc2ccc(-c3ccc(F)cc3OCCc3c(C(F)(F)F)nn(C)c3C)cn12 [IMP-1111]
HsNMT1 [1]
  IC50: 0.0065 µM
ZtNMTΔ99 [2]; [8]
  IC50: 0.7 µM

## CNCc1nnc2ccc(-c3ccc(F)cc3OCCc3c(C(=O)N4CCCC4)nn(C)c3C)cn12 [IMP-1112]
HsNMT1 [1]
  IC50: 0.0198 µM
ZtNMTΔ99 [2]; [8]
  IC50: 0.42 µM

## Cc1nn(C)c(C)c1CCOc1c(F)cccc1-c1ccc2c(c1)c(CN(C)C)nn2C [IMP-1031]
Z. tritici; [9]
  EC50: 51 µM
HsNMT1 [1]
  IC50: 0.0046 µM
ZtNMTΔ99 [2]; [8]
  IC50: 0.016 µM

## COc1cc(CCOC(=O)c2sc3ccccc3c2OC2CCNCC2)cc(OC)c1 [IMP-277]
HsNMT1 [1]
  Ki: 0.031 µM
ZtNMTΔ99 [2]; [8]
  IC50: > 300 µM

## CNCc1cnc2ccc(-c3ccc(F)cc3OCCc3c(C#N)nn(C)c3C)cn12 [IMP-1195]
HsNMT1 [1]
  IC50: < 0.001 µM
ZtNMTΔ99 [2]; [8]
  IC50: < 0.001 µM

## CNCc1nn(C)c2ccc(-c3cccc(F)c3OCCc3c(C)nn(C)c3C)cc12 [IMP-1036]
HsNMT1 [1]
  IC50: 0.016 µM
ZtNMTΔ99 [2]; [8]
  IC50: 0.03 µM

## NH2-GLTFSKLF-OH (H-GLTFSKLF-OH) [ZtARF1 peptide, octapeptide substrate derived from the N-terminus of F9X1I2 (Z. tritici ARF1 homolog)]
ZtNMTΔ99 [3]
  Km: 2.73 µM

## Cc1nn(C)c(C)c1CCOc1cc(F)ccc1-c1ccc2nnc(C3CNC3)n2c1 [IMP-1091]
HsNMT1 [1]
  IC50: 0.056 µM
ZtNMTΔ99 [2]; [8]
  IC50: 2.1 µM

## Cc1nn(C)c(C)c1CCOc1c(F)cccc1-c1ccc2ncc(CN(C)C)n2c1 [IMP-1131]
HsNMT1 [1]
  IC50: 0.0024 µM
ZtNMTΔ99 [2]; [8]
  IC50: 2.4 µM

## CNCc1cnc2ccc(-c3ccc(F)cc3OCCc3c(C(N)=O)nn(C)c3C)cn12 [IMP-1179]
HsNMT1 [1]
  IC50: 0.0056 µM
ZtNMTΔ99 [2]; [8]
  IC50: 0.28 µM

## Cc1nn(C)c(C)c1CCOc1cc(F)ccc1-c1ccc2[nH]nc(CN(C)C)c2c1 [IMP-917]
HsNMT1 [1]
  IC50: 0.013 µM
ZtNMTΔ99 [2]; [8]
  IC50: 0.16 µM

## CNCc1nnc2ccc(-c3ccc(F)cc3OCCc3c(C(=O)N(C)C)nn(C)c3C)cn12 [IMP-1094]
HsNMT1 [1]
  IC50: 0.007 µM
ZtNMTΔ99 [2]; [8]
  IC50: 0.086 µM

## N[C@H](CC(=O)N1C[C@H](CO)[C@@H](c2ccc(Cl)c(NC(=O)Cc3ccc(F)cc3)c2)C1)Cc1ccc(Cl)cc1 [IMP-162]
Z. tritici; Zymoseptoria tritici, Fig. 1B, Z. tritici cell viability, MTS, 40 h, read-out: EC50
  EC50: ~20 µM
Z. tritici; Zymoseptoria tritici, Table S1, viability MTS assay, read-out: EC50
  EC50: 18 µM
Z. tritici culture; 24 μM and 48 μM
  culture phenotype under microscope: phenotype consistent with cell death
Z. tritici culture; 96 μM
  culture phenotype under microscope: most cells appear dead
Z. tritici culture
  effect on cell viability: kill Z. tritici culture
ZtNMTΔ99 [2]
  IC50: 1.9 µM

## CNCCc1cnc2ccc(-c3ccc(F)cc3OCCc3c(C(=O)N(C)C)nn(C)c3C)cn12 [IMP-1124]
HsNMT1 [1]
  IC50: 0.0007 µM
ZtNMTΔ99 [2]; [8]
  IC50: 0.013 µM

## CNCCc1cnc2ccc(-c3ccc(F)cc3OCCc3c(CO)nn(C)c3C)cn12 [IMP-1185]
HsNMT1 [1]
  IC50: 0.0258 µM
ZtNMTΔ99 [2]; [8]
  IC50: 4 µM

## CNCc1cnc2ccc(-c3ccc(F)cc3OCCc3c(C)nn(C)c3C)cn12 [IMP-1097]
HsNMT1 [1]
  IC50: 0.0019 µM
ZtNMTΔ99 [2]; [8]
  IC50: 0.2 µM

## Cc1nn(C)c(C)c1CCOc1cc(F)ccc1-c1ccc2nnc(C3CCCN3)n2c1 (stereo not drawn) [IMP-1090]
HsNMT1 [1]
  IC50: 2.59 µM
ZtNMTΔ99 [2]; [8]
  IC50: 22 µM

## CNCc1nn(C)c2ccc(-c3ccc(F)c(F)c3OCCc3c(C)nn(C)c3C)cc12 [IMP-1089]
Z. tritici; [9]
  EC50: 46 µM
HsNMT1 [1]
  IC50: < 0.001 µM
ZtNMTΔ99 [2]; [8]
  IC50: 0.0067 µM

## Cc1c(CCOc2cc(F)ccc2-c2ccc3ncc(CN(C)C)n3c2)c(C(=O)N(C)C)nn1C [IMP-1134]
Z. tritici; [9]
  EC50: 27 µM
HsNMT1 [1]
  IC50: < 0.001 µM
ZtNMTΔ99 [2]; [8]
  IC50: < 0.001 µM

## CNCc1nnc2ccc(-c3ncccc3OCCc3c(C)nn(C)c3C)cn12 [IMP-1093]
HsNMT1 [1]
  IC50: 7.39 µM
ZtNMTΔ99 [2]; [8]
  IC50: > 300 µM

## Cc1nn(C)c(C)c1NS(=O)(=O)c1c(Cl)cc(-c2ccnc(N3CCNCC3)c2)cc1Cl [IMP-366, reference compound]
Z. tritici; Zymoseptoria tritici, Table S1, viability MTS assay
  EC50: 110 µM
ZtNMTΔ99 [2]
  IC50: 0.05 µM

## Cc1nn(C)c(C)c1Cc1nnc(-c2cc(Cl)ccc2OC2CCNCC2)o1 [IMP-329]
Z. tritici; [9]
  EC50: 280 µM
HsNMT1 [1]
  Ki: 0.02 µM
ZtNMTΔ99 [2]; [8]
  IC50: 0.87 µM

## Cc1c(CCOc2cc(F)ccc2-c2ccc3nnc(C4CNC4)n3c2)c(C(=O)N(C)C)nn1C [IMP-1100]
Z. tritici; [9]
  EC50: > 500 µM
HsNMT1 [1]
  IC50: 0.001 µM
ZtNMTΔ99 [2]; [8]
  IC50: 0.016 µM

## Cc1nn(C)c(C)c1CCOc1c(F)cccc1-c1ccc2c(c1)c(CN)nn2C [IMP-1034]
HsNMT1 [1]
  IC50: 0.005 µM
ZtNMTΔ99 [2]; [8]
  IC50: 0.032 µM

## Cc1nn(C)c(C)c1CCOc1c(-c2ccc3c(c2)c(CN(C)C)nn3C)ccc(F)c1F [IMP-1088]
Z. tritici; Fig. 1B, Z. tritici cell viability, MTS, 40 h
  EC50: 23 µM
Z. tritici; Zymoseptoria tritici, 40 h, Fig. 1B, Z. tritici cell viability, MTS
  EC50: ~20 µM
HsNMT1 [1]
  IC50: < 0.001 µM
[4]
  whole proteome response: significant dose-dependent changes in the expression of multiple proteins
[5]; 64 μM versus DMSO, 4 h
  YnMyr tagging of myristoylated proteins: reduced tagging
[5]; first subset of myristoylated proteins in Cluster 1
  TC50 (concentration of half-tagging with YnMyr): 8 to 16 µM
[5]; second subset of myristoylated proteins in Cluster 1
  TC50 (concentration of half-tagging with YnMyr): 16 to 32 µM
[5]; third subset of myristoylated proteins in Cluster 1
  TC50 (concentration of half-tagging with YnMyr): 32 to 64 µM
Z. tritici culture
  effect on cell viability: no detectable effect on cell viability
[6]; 4 h, intensity of most prominent band (ca. 20 kDa), in-gel fluorescence
  TC50 (half maximal concentration of YnMyr tagging): 14 ± 1 µM
[6]; 4 h with compound and YnMyr, TAMRA fluorescence
  effect on YnMyr labeling (in-gel band intensities): dose-dependently reduces labeling; also recorded: reduced YnMyr tagging
HsNMT1 [7]
  Kd: < 0.0002 µM
ZtNMTΔ99 [2]
  IC50: 0.012 µM
